Data as given in PMC7024302, “Ultrashort Cationic Lipopeptides–Effect of N-Terminal Amino Acid and Fatty Acid Type on Antimicrobial Activity and Hemolysis” (Molecules, 2020).
≈ marks a conversion by molar mass, not a printed value. Residues, ends and D or L forms follow the SMILES beside them. *: point of attachment. Myristoyl = CCCCCCCCCCCCCC(=O)*; Acm = CC(=O)NC*

Experiments:
[1] = test system: S. aureus ATCC 33591 (MRSA); format: cell-based, Staphylococcus aureus; details: ATCC 33591, 18 h
Description: (§1) The Acinetobacter baumannii ATCC BAA-1605, Candida albicans ATCC 10231, Enterococcus faecium ATCC 700221, Klebsiella aerogenes ATCC 13048 (previously known as Enterobacter aerogenes), Klebsiella pneumoniae ATCC 700603, Pseudomonas aeruginosa ATCC 9027, Staphylococcus aureus ATCC 25923 and MRSA ATCC 33591, were acquired from the American Type Culture Collection (ATCC). Before running the tests, beads with cryo-protected microorganisms were transferred into fresh MHB (BioMaxima, Lublin, Poland) for bacteria or RPMI-1640 for fungi and incubated for 24 h at 37 °C. Then, the culture was seeded on the Mueller-Hinton agar (MHA) plates (BioMaxima, Lublin, Poland) for bacteria or Sabouraud dextrose agar (SDA) plates (BioMaxima, Lublin, Poland) for fungi and incubated as just mentioned. Cell densities for all assays were adjusted spectrophotometrically (Multiskan™ GO Microplate Spectrophotometer, Thermo Fisher Scientific, Vantaa, Finland) at 600 nm for bacteria and at 530 nm for fungi.
(§2) The MICs were determined by broth microdilution method according to the Clinical and Laboratory Standard Institute guidelines. For this purpose initial inoculums of bacteria (5 × 10^5 CFU/mL) in MHB (BioMaxima, Lublin, Poland) and fungi (2 × 10^3 CFU/mL) in RPMI-1640 with 2% D-glucose (Merck, Darmstadt, Germany) prepared with MOPS (pH 7.0 ± 0.1 at 25 °C; Merck, Darmstadt, Germany) were exposed to the ranging concentration of lipopeptides (0.5–256 µg/mL) and incubated at 37 °C for 18 h and 24 h respectively. The experiments were conducted on 96-well microtiter polystyrene plates (Kartell, Italy). The MIC was taken as the lowest peptide concentration at which a noticeable growth of microorganisms was inhibited. All experiments were conducted in triplicate.

S. aureus ATCC 25923 = format: cell-based, Staphylococcus aureus; details: ATCC 25923, 18 h
Description: as §1, §2

P. aeruginosa ATCC 9027 = format: cell-based, Pseudomonas aeruginosa; details: ATCC 9027, 18 h
Description: as §1, §2

[2] = Determination of peptide hydrophobicity with RP-HPLC (adjusted retention time); format: physicochemical; details: for tR’: Table 3, adjusted retention time as hydrophobicity; for tR’ / Adjusted retention time: RP-HPLC C18, linear 10–55% acetonitrile over 60 min; for tR’ / tR’ (adjusted retention time) / Adjusted retention time: 0.1% TFA, 25.0 °C, UV 214 nm, triplicate; for tR’ (adjusted retention time): Table 1 and b9, measure of hydrophobicity, RP-HPLC, Phenomenex Luna C18(2) 3.0 × 100 mm, 5 µm, linear 10–55% acetonitrile in water over 60 min, 0.5 mL/min, peptide 1 g/L; for ∆tR: tR’ of the lipopeptide minus tR’ of C10-RR-NH2 or C12-RR-NH2, same RP-HPLC conditions; for Adjusted retention time: Table 2, nC = carbon atoms in fatty acid chain
Method: To determine peptide hydrophobicity, the Waters Alliance e2695 system with a Waters 2998 PDA Detector (software-Empower®3) was used. All analyses were carried out on a Phenomenex Luna C18(2) column (3.0 × 100 mm, 5 µm particle size, 100 Å pore size). The peptides were dissolved in water (0.1% TFA, v/v) to obtain a concentration of 1 g/L. UV detection at 214 nm was used, and aliquots (10 µL) were eluted with a linear 10–55% acetonitrile gradient in deionized water over 60 min at 25.0 ± 0.1 °C. The mobile phase flow rate was 0.5 mL/min. Both eluents contained 0.1% (v/v) of TFA. Each peptide sample was analyzed in triplicate.

K. aerogenes ATCC 13048 = format: cell-based, Klebsiella aerogenes; details: ATCC 13048, 18 h
Description: as §1, §2

E. faecium ATCC 700221 = format: cell-based, Enterococcus faecium; details: ATCC 700221, 18 h
Description: as §1, §2

[3] = test system: K. pneumoniae ATCC 700603; format: cell-based, Klebsiella pneumoniae; details: ATCC 700603, 18 h
Description: as §1, §2

[4] = test system: human red blood cells (hRBCs); format: cell-based; details: red cells of human, 1 h
Method: The hemolysis assay was performed as described earlier according to the method of Avrahami and Shai. Fresh human red blood cells (hRBCs) with anticoagulant (EDTA) were rinsed three times with a PBS (Merck, Darmstadt, Germany) by centrifugation at 800× g for 10 min and resuspended in PBS. Lipopeptides were serially diluted on 96-well microtiter polystyrene plate and hRBCs were added to reach final volume of 100 µL. Peptide concentration ranged between 0.5 and 256 µg/mL and final hRBCs concentration was 4% (v/v). Controls for zero hemolysis (blank) and 100% hemolysis consisted of hRBCs suspended in PBS and 1% of Triton-X 100 (Merck, Darmstadt, Germany), respectively. The plate was incubated for 1 h at 37 °C and then centrifuged (800× g, 10 min, 4 °C). Subsequently, supernatant was […] to new microtiter plates and absorbance at 540 nm were measured. All experiments were conducted in triplicate. Protocol of the study received approval from the local Bioethics Committee at the Medical University of Gdańsk (NKBBN/262/2019).

[5] = test system: A. baumannii ATCC BAA-1605; format: cell-based, Acinetobacter baumannii; details: ATCC BAA-1605, 18 h
Description: as §1, §2

C. albicans ATCC 10231 = format: cell-based, Candida albicans; details: ATCC 10231, 24 h, pH 7
Description: as §1, §2

Compound | MIC S [1] | MIC SA (S. aureus ATCC 25923) | MIC PA (P. aeruginosa ATCC 9027) [µg/mL] | tR’ [2] [min] | MIC E2 (K. aerogenes ATCC 13048) | MIC E1 (E. faecium ATCC 700221) [µg/mL] | MIC K [3] | HC50 [4] | MIC A [5] [µg/mL] | MIC CA (C. albicans ATCC 10231) [µg/mL] | tR’ (adjusted retention time) [2] [min] | ∆tR [2] [min] | Adjusted retention time [2] [min]
CCCCCCCCCCCCCC(=O)N[C@@H](CSCNC(C)=O)C(=O)N[C@@H](CCCNC(=N)N)C(=O)N[C@@H](CCCNC(=N)N)C(N)=O [compound 14, C14-C(Acm)RR-NH2] (Myristoyl-Cys(Acm)-Arg-Arg-NH2) | 16 µg/mL (≈ 22.4 µM) | 16 µg/mL (≈ 22.4 µM) | 16 (≈ 22.4 µM) | 43.24 | 256 µg/mL (≈ 359 µM) | 8 (≈ 11.2 µM) | 256 µg/mL (≈ 359 µM) | 39.72 (±1.25) µg/mL | 16 (≈ 22.4 µM) | 8 (≈ 11.2 µM) | – | – | –
CCCCCCCCCC(=O)N[C@@H](Cc1ccccc1)C(=O)N[C@@H](CCCNC(=N)N)C(=O)N[C@@H](CCCNC(=N)N)C(N)=O [compound 24, C10-FRR-NH2] (HELM PEPTIDE1{[CCCCCCCCCC(=O)[*:2]].F.R.R.[am]}$$$$V2.0) | 16 (>16) µg/mL | 16 (>16) µg/mL | 32 (≈ 50.7 µM) | 34.68 | >256 (-) µg/mL | 32 (≈ 50.7 µM) | >256 (-) µg/mL | >256 µg/mL | 64 (≈ 101 µM) | 64 (≈ 101 µM) | 34.68 | 10.38 | –
CCCCCCCCCCCC(=O)N[C@@H](Cc1ccccc1)C(=O)N[C@@H](CCCNC(=N)N)C(=O)N[C@@H](CCCNC(=N)N)C(N)=O [compound 25, C12-FRR-NH2] (HELM PEPTIDE1{[CCCCCCCCCCCC(=O)[*:2]].F.R.R.[am]}$$$$V2.0) | 8 µg/mL (≈ 12.1 µM) | 4 µg/mL (≈ 6.07 µM) | 8 (≈ 12.1 µM) | 41.45 | 256 µg/mL (≈ 389 µM) | 8 (≈ 12.1 µM) | 256 µg/mL (≈ 389 µM) | 91.21 (±16.38) µg/mL | 64 (≈ 97.1 µM) | 8 (≈ 12.1 µM) | 41.45 | 8.87 | –
CCCCCCCCCCCCCC(=O)N[C@@H](Cc1ccccc1)C(=O)N[C@@H](CCCNC(=N)N)C(=O)N[C@@H](CCCNC(=N)N)C(N)=O [compound 26, C14-FRR-NH2] (HELM PEPTIDE1{[CCCCCCCCCCCCCC(=O)[*:2]].F.R.R.[am]}$$$$V2.0) | 32 µg/mL (≈ 46.6 µM) | 4 µg/mL (≈ 5.82 µM) | 8 (≈ 11.6 µM) | 47.75 | 64 µg/mL (≈ 93.2 µM) | 16 (≈ 23.3 µM) | 64 µg/mL (≈ 93.2 µM) | 39.09 (±1.18) µg/mL | 128 (≈ 186 µM) | 2 (≈ 2.91 µM) | – | – | –
CCCCCCCCCCCCCC(=O)NCC(=O)N[C@@H](CCCNC(=N)N)C(=O)N[C@@H](CCCNC(=N)N)C(N)=O [compound 30, C14-GRR-NH2] | 8 µg/mL (≈ 13.4 µM) | 8 µg/mL (≈ 13.4 µM) | 32 (≈ 53.6 µM) | 40.53 | 256 µg/mL (≈ 429 µM) | 8 (≈ 13.4 µM) | 256 µg/mL (≈ 429 µM) | 31.94 (±1.99) µg/mL | 64 (≈ 107 µM) | 16 (≈ 26.8 µM) | – | – | –
CCCCCCCCCCCCCC(=O)N[C@@H](Cc1c[nH]cn1)C(=O)N[C@@H](CCCNC(=N)N)C(=O)N[C@@H](CCCNC(=N)N)C(N)=O [compound 34, C14-HRR-NH2] (HELM PEPTIDE1{[CCCCCCCCCCCCCC(=O)[*:2]].H.R.R.[am]}$$$$V2.0) | 16 µg/mL (≈ 23.6 µM) | 16 µg/mL (≈ 23.6 µM) | 64 (≈ 94.5 µM) | 35.80 | 256 µg/mL (≈ 378 µM) | 8 (≈ 11.8 µM) | 256 µg/mL (≈ 378 µM) | 50.31 (±0.52) µg/mL | 128 (≈ 189 µM) | 16 (≈ 23.6 µM) | – | – | –
CCCCCCCCCCCC(=O)N[C@H](C(=O)N[C@@H](CCCNC(=N)N)C(=O)N[C@@H](CCCNC(=N)N)C(N)=O)[C@@H](C)CC [compound 37, C12-IRR-NH2] (HELM PEPTIDE1{[CCCCCCCCCCCC(=O)[*:2]].I.R.R.[am]}$$$$V2.0) | 8 µg/mL (≈ 12.8 µM) | 8 µg/mL (≈ 12.8 µM) | 16 (≈ 25.6 µM) | 39.05 | 256 µg/mL (≈ 410 µM) | 8 (≈ 12.8 µM) | 256 µg/mL (≈ 410 µM) | 120.40 (±1.55) µg/mL | 64 (≈ 102 µM) | 16 (≈ 25.6 µM) | – | – | 39.047
CCCCCCCCCCCCCC(=O)N[C@H](C(=O)N[C@@H](CCCNC(=N)N)C(=O)N[C@@H](CCCNC(=N)N)C(N)=O)[C@@H](C)CC [compound 38, C14-IRR-NH2] (HELM PEPTIDE1{[CCCCCCCCCCCCCC(=O)[*:2]].I.R.R.[am]}$$$$V2.0) | 4 µg/mL (≈ 6.13 µM) | 4 µg/mL (≈ 6.13 µM) | 4 (≈ 6.13 µM) | 45.65 | 64 µg/mL (≈ 98 µM) | 4 (≈ 6.13 µM) | 64 µg/mL (≈ 98 µM) | 78.92 (±4.38) µg/mL | 64 (≈ 98 µM) | 4 (≈ 6.13 µM) | – | – | 45.650
